From patent publication US5985968A, “Surface tension reduction with N,N-dialkyl ureas” (Air Products and Chemicals, Inc., priority 1997, dated 1999)
Values after ≈ are worked out from the molar mass of the structure shown. Each block holds one compound with its values, some of them ahead of it.

Legend:
Assay type in all cases: physicochemical
[1] = Dynamic surface tension of aqueous solutions, maximum-bubble-pressure method; conditions: for Dynamic Surface Tension: about 23° C.; for Surface tension reduction (in words): summary of dynamic surface tension data
From the text: This invention relates to the use of compounds of the formula [drawing 3] where R1 and R2 are independently C1 to C6 alkyl or cycloalkyl with the total number of carbons in R and R' being 6-12 for the reduction of equilibrium and dynamic surface tension in water-based formulations containing an organic compound, particularly coating, ink, and agricultural formulations. […] The maximum-bubble-pressure method of measuring surface tension is described in Langmuir 1986, 2, 428-432, which is incorporated by reference.
In the following examples dynamic surface tension data were generated for aqueous solutions of the indicated compounds using the maximum-bubble-pressure method at the indicated bubble rates, i.e., bubbles/second (b/s), and room temperature of about 23° C. The equipment used was a Kruss BP 2 bubble pressure tensiometer.
(§1) A saturated solution in distilled water of N,N'-di-n-butylurea was prepared by placing 0.1 g of the urea into 99.9 g of water and shaking the mixture for 1-2 h. […] The solids were removed by filtration, and the dynamic surface tension of the resulting solution was measured using the maximum bubble pressure method at bubble rates from 0.1 to 20 b/s. […] In practical terms, high bubble rates correspond to high printing speeds in lithographic or ink-jet printing, high spray or roller velocities in coating applications, and rapid application rates for agricultural products.
Aqueous solutions of N,N-dibutylurea were prepared and their surface tensions were measured using the procedure described above.

[2] = Foaming properties of 0.1 wt % solution, procedure based upon ASTM D 1173-53
Method: The foaming properties of a 0.1 wt % solution of N,N-dibutylurea, N,N-dipentyl-urea, and N,N-dihexylurea were examined using a procedure based upon ASTM D 1173-53. In this test, a 0.1 wt % solution of the surfactant is added from an elevated foam pipette to a foam receiver containing the same solution. The foam height is measured at the completion of the addition ("Initial Foam Height") and the time required for the foam to dissipate is recorded ("Time to 0 Foam"). This test provides a comparison between the foaming characteristics of various surfactant solutions. In general, in coatings, inks, and agricultural formulations, foam is undesirable because is complicates handling and can lead to coating and print defects, and to inefficient application of agricultural materials.

[3] = Solubility in water (saturated solution / solubility limit); conditions: for dissolution (in words): 0.1 g urea in 99.9 g water, shaken 1-2 h; for solubility thermodynamic: saturated solution in distilled water, solids filtered off, read-out: Concentration of saturated solution
Method: (§2) A series of aqueous solutions of various concentrations of n-octylurea [Pfaltz & Bauer] was prepared by placing the urea into water and shaking the mixture for 1-2 h. All of the urea dissolved in the low concentration samples. Undissolved urea in some of the higher concentration samples was remove by filtration. Surface tensions of these solutions were measured using the Wilheimy plate technique. This method provides equilibrium surface tension values. Equilibrium values are always equal to or lower than those obtained under dynamic conditions.
as §1
A saturated solution in distilled water of N,N-di-(2-ethylhexyl)urea was prepared by placing 0.1 g of the urea into 99.9 g of water and shaking the mixture for 1-2 h. […] The solids were removed by filtration, and the surface tension of the resulting solution was measured as described above.
Similarly, a saturated solution in distilled water of N,N-di-n-octylurea was prepared by placing 0.1 g of the urea into 99.9 g of water and shaking the mixture for 1-2 hr. […] The solids were removed by filtration, and the surface tension of the resulting solution was measured as described above.
A saturated solution in distilled water of N,N-di-n-hexylurea was prepared by placing 0.1 g of the urea into 99.9 g of water and shaking the mixture for 1-2 h. […] The solids were removed by filtration, and the surface tension of the resulting solution was measured as described above.

[4] = Equilibrium surface tension of aqueous solutions, Wilhelmy plate technique
Method: as §2

Compound: CCCCCCN(CCCCCC)C(N)=O [N,N-Di-n-hexylurea, N,N-di-n-hexylurea]
dissolution (in words) [3]: Most of the N,N-di-n-hexylurea remained undissolved | solubility thermodynamic [3]: < 1000 µg/mL | Dynamic Surface Tension ([1]; saturated (<0.1 wt %), 0.1 b/s): 34.7 dyne/cm | Dynamic Surface Tension ([1]; saturated (<0.1 wt %), 1 b/s): 42.8 dyne/cm | Dynamic Surface Tension ([1]; saturated (<0.1 wt %), 6 b/s): 56.8 dyne/cm | Dynamic Surface Tension ([1]; saturated (<0.1 wt %), 15 b/s): 63.7 dyne/cm | Dynamic Surface Tension ([1]; saturated (<0.1 wt %), 20 b/s): 62.4 dyne/cm | Initial Foam Height [2]: 1.0 cm | Time to 0 Foam [2]: 2 s

Compound: CCCCCCCCN(CCCCCCCC)C(N)=O [N,N-Di-n-octylurea, N,N-di-n-octylurea, reference compound]
dissolution (in words) [3]: Most of the urea remained undissolved | solubility thermodynamic [3]: < 1000 µg/mL | Dynamic Surface Tension ([1]; saturated (<0.1 wt %), 0.1 b/s): 52.9 dyne/cm | Dynamic Surface Tension ([1]; saturated (<0.1 wt %), 1 b/s): 69.8 dyne/cm | Dynamic Surface Tension ([1]; saturated (<0.1 wt %), 6 b/s): 71.1 dyne/cm | Dynamic Surface Tension ([1]; saturated (<0.1 wt %), 15 b/s): 70.3 dyne/cm | Dynamic Surface Tension ([1]; saturated (<0.1 wt %), 20 b/s): 69.4 dyne/cm

Compound: CCCCC(CC)CN(CC(CC)CCCC)C(N)=O (stereo not shown) [N,N-Di-(2-ethylhexyl)urea, N,N-di-(2-ethylhexyl)urea, reference compound]
dissolution (in words) [3]: Most of the urea remained undissolved | solubility thermodynamic [3]: < 1000 µg/mL | Dynamic Surface Tension ([1]; saturated (<0.1 wt %), 0.1 b/s): 60.1 dyne/cm | Dynamic Surface Tension ([1]; saturated (<0.1 wt %), 1 b/s): 69.2 dyne/cm | Dynamic Surface Tension ([1]; saturated (<0.1 wt %), 6 b/s): 69.6 dyne/cm | Dynamic Surface Tension ([1]; saturated (<0.1 wt %), 15 b/s): 69.3 dyne/cm | Dynamic Surface Tension ([1]; saturated (<0.1 wt %), 20 b/s): 68.1 dyne/cm

Compound: CCCCNC(=O)NCCCC [N,N'-Di-n-butylurea, N,N'-di-n-butylurea, reference compound]
dissolution (in words) [3]: Most of the N,N'-di-n-butylurea remained undissolved | solubility thermodynamic [3]: < 1000 µg/mL | Dynamic Surface Tension ([1]; saturated (<0.1 wt %), 0.1 b/s): 59.0 dyne/cm | Dynamic Surface Tension ([1]; saturated (<0.1 wt %), 1 b/s): 59.6 dyne/cm | Dynamic Surface Tension ([1]; saturated (<0.1 wt %), 6 b/s): 60.2 dyne/cm | Dynamic Surface Tension ([1]; saturated (<0.1 wt %), 15 b/s): 60.6 dyne/cm | Dynamic Surface Tension ([1]; saturated (<0.1 wt %), 20 b/s): 60.9 dyne/cm

The next lines start with results.

Dynamic Surface Tension ([1]; 0.3 wt %, 0.1 b/s): 42.9 dyne/cm | Dynamic Surface Tension ([1]; 0.3 wt %, 1 b/s): 43.1 dyne/cm | Dynamic Surface Tension ([1]; 0.3 wt %, 6 b/s): 43.4 dyne/cm | Dynamic Surface Tension ([1]; 0.3 wt %, 15 b/s): 43.4 dyne/cm | Dynamic Surface Tension ([1]; 0.3 wt %, 20 b/s): 43.6 dyne/cm | Dynamic Surface Tension ([1]; 1.0 wt %, 0.1 b/s): 32.7 dyne/cm | Dynamic Surface Tension ([1]; 1.0 wt %, 1 b/s): 32.9 dyne/cm | Dynamic Surface Tension ([1]; 1.0 wt %, 6 b/s): 33.2 dyne/cm | Dynamic Surface Tension ([1]; 1.0 wt %, 15 b/s): 33.8 dyne/cm | Dynamic Surface Tension ([1]; 1.0 wt %, 20 b/s): 34.1 dyne/cm | Dynamic Surface Tension ([1]; 1.5 wt %, 0.1 b/s): 28.2 dyne/cm | Dynamic Surface Tension ([1]; 1.5 wt %, 1 b/s): 28.3 dyne/cm | Dynamic Surface Tension ([1]; 1.5 wt %, 6 b/s): 28.5 dyne/cm | Dynamic Surface Tension ([1]; 1.5 wt %, 15 b/s): 29.1 dyne/cm | Dynamic Surface Tension ([1]; 1.5 wt %, 20 b/s): 29.5 dyne/cm | Dynamic Surface Tension ([1]; 1.5 wt %, 20 b/s, listed as N,N-dibutylurea): below 30 dyne/cm | Initial Foam Height [2]: 3.0 cm | Time to 0 Foam [2]: 5 s
Compound: CCCCN(CCCC)C(N)=O [N,N-Dibutylurea, N,N-dibutylurea]
Surface tension reduction (in words) [1]: highly effective at reducing the surface tension of water

Dynamic Surface Tension ([1]; 1.0 wt %, 0.1 b/s): 51.9 dyne/cm | Dynamic Surface Tension ([1]; 1.0 wt %, 1 b/s): 52.4 dyne/cm | Dynamic Surface Tension ([1]; 1.0 wt %, 6 b/s): 52.9 dyne/cm | Dynamic Surface Tension ([1]; 1.0 wt %, 15 b/s): 53.2 dyne/cm | Dynamic Surface Tension ([1]; 1.0 wt %, 20 b/s): 53.2 dyne/cm | Dynamic Surface Tension ([1]; 2.5 wt %, 0.1 b/s): 44.1 dyne/cm | Dynamic Surface Tension ([1]; 2.5 wt %, 1 b/s): 44.6 dyne/cm | Dynamic Surface Tension ([1]; 2.5 wt %, 6 b/s): 45.1 dyne/cm | Dynamic Surface Tension ([1]; 2.5 wt %, 15 b/s): 45.6 dyne/cm | Dynamic Surface Tension ([1]; 2.5 wt %, 20 b/s): 45.8 dyne/cm
Compound: CN(C(N)=O)C1CCCCC1 [N-cyclohexyl-N-methylurea]
Surface tension reduction (in words) [1]: reasonably effective at reducing the surface tension of water

solubility limit ([3]; in water): 0.3 wt % | Dynamic Surface Tension ([1]; 0.1 wt %, 0.1 b/s): 36.3 dyne/cm | Dynamic Surface Tension ([1]; 0.1 wt %, 1 b/s): 37.1 dyne/cm | Dynamic Surface Tension ([1]; 0.1 wt %, 6 b/s): 38.7 dyne/cm | Dynamic Surface Tension ([1]; 0.1 wt %, 15 b/s): 40.7 dyne/cm | Dynamic Surface Tension ([1]; 0.1 wt %, 20 b/s): 41.3 dyne/cm | Dynamic Surface Tension ([1]; 0.2 wt %, 0.1 b/s): 32.8 dyne/cm | Dynamic Surface Tension ([1]; 0.2 wt %, 1 b/s): 33.4 dyne/cm | Dynamic Surface Tension ([1]; 0.2 wt %, 6 b/s): 34.6 dyne/cm | Dynamic Surface Tension ([1]; 0.2 wt %, 15 b/s): 36.2 dyne/cm | Dynamic Surface Tension ([1]; 0.2 wt %, 20 b/s): 36.3 dyne/cm | Dynamic Surface Tension ([1]; 0.3 wt %, 0.1 b/s): 30.9 dyne/cm | Dynamic Surface Tension ([1]; 0.3 wt %, 1 b/s): 31.5 dyne/cm | Dynamic Surface Tension ([1]; 0.3 wt %, 6 b/s): 32.4 dyne/cm | Dynamic Surface Tension ([1]; 0.3 wt %, 15 b/s): 32.9 dyne/cm | Dynamic Surface Tension ([1]; 0.3 wt %, 20 b/s): 33.1 dyne/cm | Initial Foam Height [2]: 1.5 cm | Time to 0 Foam [2]: 3 s
Compound: N,N-dipentylurea

Dynamic Surface Tension ([1]; 0.5 wt %, 0.1 b/s): 53.8 dyne/cm | Dynamic Surface Tension ([1]; 0.5 wt %, 1 b/s): 54.0 dyne/cm | Dynamic Surface Tension ([1]; 0.5 wt %, 6 b/s): 54.3 dyne/cm | Dynamic Surface Tension ([1]; 0.5 wt %, 15 b/s): 53.8 dyne/cm | Dynamic Surface Tension ([1]; 0.5 wt %, 20 b/s): 53.7 dyne/cm | Dynamic Surface Tension ([1]; 2.0 wt %, 0.1 b/s): 43.4 dyne/cm | Dynamic Surface Tension ([1]; 2.0 wt %, 1 b/s): 43.6 dyne/cm | Dynamic Surface Tension ([1]; 2.0 wt %, 6 b/s): 43.9 dyne/cm | Dynamic Surface Tension ([1]; 2.0 wt %, 15 b/s): 44.4 dyne/cm | Dynamic Surface Tension ([1]; 2.0 wt %, 20 b/s): 44.5 dyne/cm | Dynamic Surface Tension ([1]; 4.0 wt %, 0.1 b/s): 39.0 dyne/cm | Dynamic Surface Tension ([1]; 4.0 wt %, 1 b/s): 39.1 dyne/cm | Dynamic Surface Tension ([1]; 4.0 wt %, 6 b/s): 39.3 dyne/cm | Dynamic Surface Tension ([1]; 4.0 wt %, 15 b/s): 39.5 dyne/cm | Dynamic Surface Tension ([1]; 4.0 wt %, 20 b/s): 39.6 dyne/cm
Compound: CCCN(CCC)C(N)=O [N,N-Di-n-propylurea, N,N-di-n-propylurea]
Surface tension reduction (in words) [1]: reasonably effective at reducing the surface tension of water

solubility ([3]; in water): 100 µg/mL (≈ 0.58 mM) | Equilibrium surface tension ([4]; 0.0001 wt % in water): 72.2 dyne/cm | Equilibrium surface tension ([4]; 0.0005 wt % in water): 72.1 dyne/cm | Equilibrium surface tension ([4]; 0.001 wt % in water): 72.0 dyne/cm | Equilibrium surface tension ([4]; 0.003 wt % in water): 68.9 dyne/cm | Equilibrium surface tension ([4]; 0.005 wt % in water): 62.4 dyne/cm | Equilibrium surface tension ([4]; 0.007 wt % in water): 60.0 dyne/cm | Equilibrium surface tension ([4]; 0.009 wt % in water): 57.0 dyne/cm | Equilibrium surface tension ([4]; 0.015 wt % in water): 57.1 dyne/cm | Equilibrium surface tension ([4]; 0.03 wt % in water): 55.5 dyne/cm | Equilibrium surface tension ([4]; 0.06 wt % in water): 57.1 dyne/cm | lowest surface tension which can be obtained for an aqueous solution ([4]; limiting value from Table 1 data): about 56 dyne/cm
Compound: CCCCCCCCNC(N)=O [N-Octylurea, n-octylurea]
